Reference: patent publication US8071810B2, “C5a receptor antagonists” (Jerini AG, priority 2005, dated 2011)
Values after ≈ are worked out from the molar mass of the structure shown.

Tests used:
[1] = molecular target: T1, human C5a receptor (CD88) (Homo sapiens, UniProt P21730); test: C5a induced enzyme (glucosaminidase) release assay in RBL cells expressing the human C5a receptor (Example 28); format: cell-based; conditions: inhibition of C5a induced enzyme release, RBL cells with human C5aR; read-out: Activity-range (antagonistic activity, IC50 enzyme release)
T1 construct: expressed in transfected cells; host or cells: rat basophilic leukemia (RBL) cells, stably transfected
T1 sequence (P21730 1-350): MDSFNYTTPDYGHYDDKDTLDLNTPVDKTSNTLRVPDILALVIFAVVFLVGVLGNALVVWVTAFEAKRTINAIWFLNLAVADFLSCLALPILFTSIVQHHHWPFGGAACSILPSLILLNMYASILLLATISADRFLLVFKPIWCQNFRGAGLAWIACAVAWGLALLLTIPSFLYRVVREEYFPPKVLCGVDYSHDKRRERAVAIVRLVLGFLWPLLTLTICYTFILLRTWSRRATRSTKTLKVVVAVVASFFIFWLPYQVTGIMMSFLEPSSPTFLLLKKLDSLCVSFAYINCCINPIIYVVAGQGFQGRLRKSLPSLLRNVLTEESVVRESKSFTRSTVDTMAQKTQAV
Summary of the method: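 Rat basophilic leukemia (RBL) cells expressing human C5a receptor, at 2×10^6 cells/ml, primed with cytochalasin B, then incubated with test compound 10 min at 37 °C.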

C5a receptor [2] = molecular target: T2, C5a receptor (Homo sapiens, UniProt P21730); conditions: cited from earlier work
T2 sequence (P21730 1-350): T1 sequence (P21730 1-350)

[3] = Stability (shelf life) as solid TFA salt, RP-HPLC (Example 25); format: physicochemical; conditions: light, room temperature, up to 7 days
Procedure: The fractions containing the desired compound are lyophilized. In this way 1-40 mg of the compounds 11 and 13 are isolated as solid. Due to the basic amino groups the compounds are obtained as TFA salts. 0.5-10 mg of the solid are stored under the influence of light at room temperature to determine their stability over time.
The conditions were as follows:
FIG. 1 A): after purification via HPLC (solution in MeCN/H2O/TFA),
FIG. 1 B) after lyophilization (0 days of storage as solid)
FIG. 1 C) after 7 days of storage as solid

[4] = Solubility in aqueous HEPES buffer by HPLC (Example 33); format: physicochemical; conditions: kinetic from dmso stock
Procedure: To determine the solubility the compound to be measured is dissolved (e.g, […] of a 5 mM solution in DMSO) in organic solvent (e.g. 198 μl DMSO) as well as in aqueous buffer solution (e.g. 198 μl HEPES buffer). Both solutions are analyzed via analytical HPLC and the areas under the peaks are compared. The value for the organic solution is taken as 100%.

C5a induced neutropenia = C5a induced neutropenia in gerbils (Example 35); format: in vivo, gerbils (Meriones unguiculatus); conditions: gerbil
Excerpt: C5a induced neutropenia is a model for shock induced diseases (e.g. septic shock), where amongst others the systemic role of C5a (blood pressure decrease, neutropenia) plays an important role. The reason for the decrease of the neutrophils in the circulation is their binding to the vessel walls due to the C5a stimulus. These processes of neutrophil recruitment are playing an important role in many other diseases like reperfusion injury. […]
Male gerbils (Meriones unguiculatus) are anaesthesized i.p. with ketamine (80 mg/kg) and xylazine (12 mg/kg). The animals are intubated and a catheter is inserted in the jugular vene and the animals are subjected to the following procedure:
1. The gerbils are pre-treated with vehicle or the compounds of the present invention 80 (3 mg/kg) or 131 (1 mg/kg) via i.v. infusion.
One minute before compound treatment a blood sample is taken.
2. 10 minutes after the infusion of the compounds the gerbils are treated i.v. with 100 μg/kg hrC5a. […]
White blood cell counts are measured with a haematology-cell-counter. […]
The differential cell count is determined as the sum of neutrophils, eosinophile, easophile, lymphocytes and monocytes from 100 cells. Then, the percentage of neutrophils in relation to all white blood cells is determined. […]

C5a receptor [5] = molecular target: T2, C5a receptor; conditions: cited from earlier work; remark: listed apart in the source
C5a receptor [6] = molecular target: T2, C5a receptor; conditions: cited from earlier work; remark: listed apart in the source

CC(C)c1ccc(N(Cc2ccc(N(C)C)cc2)C(=O)Nc2c(C(C)C)cccc2C(C)C)cc1 [Compound 11, 3-(2,6-diisopropyl-phenyl)-1-(4-dimethylamino-benzyl)-1-(4-isopropyl-phenyl)-urea, reference compound]
IC50 [1]: 200 to 5000 nM
binding affinity to the C5a receptor (C5a receptor [2]): 100 nM
Stability on storage as solid [3]: not stable

CCc1ccc(N(C(=O)Nc2c(CC)c(N)cc(Cl)c2CC)[C@@H](C)c2ccc(Cl)cc2)cc1 [compound 80, (S)-3-(3-amino-5-chloro-2,6-diethyl-phenyl)-1-[1-(4-chlor-phenyl)-ethyl]-1-(4-ethyl-phenyl)-urea]
IC50 [1]: < 60 nM
solubility [4]: 4 µM (≈ 1.94 µg/mL)
Effect on C5a induced neutropenia (C5a induced neutropenia; 3 mg/kg i.v. infusion 10 min before 100 μg/kg hrC5a): significantly reduces C5a induced neutropenia

CCc1c(N)cc(Cl)c(CC)c1NC(=O)N(c1ccc(NC)cc1)[C@@H](C)c1ccc(Cl)cc1 [compound 131, (S)-3-(3-amino-5-chloro-2,6-diethyl-phenyl)-1-[1-(4-chloro-phenyl)-ethyl]-1-(4-methylamino-phenyl)-urea]
Effect on C5a induced neutropenia (C5a induced neutropenia; 1 mg/kg i.v. infusion 10 min before 100 μg/kg hrC5a): significantly reduces C5a induced neutropenia

NC(N)=Nc1ccc(OCCc2ccccc2)c(-c2ccccc2)c1 [Compound 5]
activity (C5a receptor [5]): 0.8 µM

CC(C)Cc1ccc([C@@H](C)C(=O)NCCC[N+]2(C)CCCCC2)cc1.[I-] [Compound 6]
activity in a chemotaxis assay (C5a receptor [6]): 24 µM
